In patent US8088819B2, “Derivatives of substituted 3-phenyl-1-(phenylthienyl)propan-1-ones and of 3-phenyl-1-(phenylfuranyl) propan-1-ones, preparation and use” (priority 2006, dated 2012):

Experiments:
C57Bl6 mouse = test: Plasma cholesterol assays and lipoprotein distribution in the C57Bl6 mouse (compounds 4 and 7); type: in vivo; settings: for lipid profile: C57Bl6 mice treated for 14 days; for plasma HDL-cholesterol levels / plasma total cholesterol levels / plasma HDL-cholesterol level (distribution of cholesterol in the plasma lipoprotein fractions): C57Bl6 mouse, 14 days; for plasma HDL-cholesterol levels / plasma total cholesterol levels: 50 mpk oral; for plasma HDL-cholesterol level (distribution of cholesterol in the plasma lipoprotein fractions): 50 mpk
Method: The effect of the compounds according to the invention was evaluated in vivo in the C57Bl6 mouse after 14 days of treatment by the oral route. At the end of the treatment, the distribution of cholesterol in the various plasma lipoprotein fractions was determined. This was compared with the profile obtained in the control animals (not treated with the compounds according to the invention). The effect of the compounds according to the invention was evaluated in the C57Bl6 mouse by measuring the plasma levels of total cholesterol and of HDL-cholesterol after 14 days of treatment by the oral route. These levels were compared with those obtained with control animals (not treated with the compounds according to the invention). The measured difference provides evidence of the antilipemic effect of the compounds according to the invention.
Female C57Bl6 mice were kept under a cycle of light and darkness of 12/12 hours at a constant temperature of 20±3° C. After acclimation for one week, the mice were weighed and put into groups of 6 animals selected so that the distribution of their body weight, of their plasma lipid levels and of total cholesterol determined for the first time before the experiment, is uniform. The test compounds were suspended in carboxymethylcellulose (Sigma C4888) and administered by intragastric force feeding, at a rate of once per day for 14 days at the chosen dose. The animals had free access to water and to food (standard diet). At the end of the experiment, the animals were anesthetized after fasting for 4 hours, a blood sample was taken using anticoagulant (EDTA), then the mice were weighed and euthanased. The plasma was separated by centrifugation at 3000 rev/min for 20 minutes, and the samples were stored at +4° C.
The plasma concentrations of total cholesterol were measured by enzyme assays (bioMérieux-Lyon-France) following the supplier's recommendations.
The low-density lipoproteins (VLDL and LDL) were precipitated with phosphotungstate. The precipitate was removed by centrifugation. The HDL-cholesterol present in the supernatant was quantified by enzyme assays (bioMérieux-Lyon-France) following the supplier's recommendations.
The various lipid fractions (VLDL, LDL, HDL) of the plasma were separated by gel filtration chromatography. The concentrations of cholesterol were then measured in each fraction by enzyme assays (bioMérieux-Lyon-France) following the supplier's recommendations.

[1] = test system: MCP1 secretion in human monocytes (THP1); test: MCP1 secretion by human monocytes stimulated with PMA (ELISA); type: cell-based; settings: at 1 μm, 24 h
Method: The antiinflammatory effects of the compounds according to the invention were evaluated by measuring the secretion and expression of macrophages chemoattractant protein (MCP1) and of matrix metalloproteinase 9 (MMP9) by monocytes treated with the compounds according to the invention for 24 hours and stimulated with PMA (phorbol 12-myristate 13-acetate, which causes an inflammatory response of the cells). The more the amount of MCP1 secreted is reduced, the greater the inhibitory action of the compounds according to the invention on the inflammatory reaction. […]
The treatment medium is recovered and the concentration of MCP1 is measured using the ELISA kit “Human MCP1 Elisa set” (BD OptEIA; 555179) following the manufacturer's recommendations.
A human antiMCP1 monoclonal antibody is fixed on a plate, then the supernatants, containing the MCP1 secreted by the cells, are distributed. […] A third antibody, conjugated and coupled to a peroxidase enzyme, makes it possible, in the presence of substrate, to initiate an enzymatic reaction, the result of which is a coloration that is proportional to the amount of MCP1 fixed, and can be measured by spectrophotometry. […]
The induction factor, i.e. the ratio of the signal induced by the compound according to the invention to the signal of the control group, was then calculated. […]

Row | SMILES | lipid profile (C57Bl6 mouse) | plasma HDL-cholesterol levels (C57Bl6 mouse) | plasma total cholesterol levels (C57Bl6 mouse) | plasma HDL-cholesterol level (distribution of cholesterol in the plasma lipoprotein fractions) (C57Bl6 mouse) | secretion of MCP1 in human monocytes [1]
1 | CC(C)(Oc1ccc(CCC(O)c2ccc(-c3ccc(C(F)(F)F)cc3)s2)c(Cl)c1Cl)C(=O)O (stereo not shown) [Compound 4, 2-(2,3-dichloro-4-(3-hydroxy-3-(5-(4-(trifluoromethyl)phenyl)thien-2-yl)propyl)phenoxy)-2-methylpropanoic acid] | improve | significantly increased | significantly increased | increased | –
2 | CC(C)(Oc1ccc(CCC(OCc2ccccc2)c2ccc(-c3ccc(C(F)(F)F)cc3)s2)c(Cl)c1Cl)C(=O)O (stereo not shown) [Compound 7, 2-(4-(3-(benzyloxy)-3-(5-(4-(trifluoromethyl)phenyl)thien-2-yl)propyl)-2,3-dichlorophenoxy)-2-methylpropanoic acid] | improve | nonsignificant increase | significantly increased | increased | significant decrease
3 | CC(C)(Oc1ccc(CCC(=O)c2cc(-c3ccc(C(F)(F)F)cc3)cs2)c(Cl)c1Cl)C(=O)O [Compound 11, 2-(2,3-dichloro-4-(3-oxo-3-(4-(4-(trifluoromethyl)phenyl)thien-2-yl)propyl)phenoxy)-2-methylpropanoic acid] | – | – | – | – | significant decrease
